{"source": "paper PMC6119630", "about": "(Bioorganic & medicinal chemistry letters, 2018)", "key": {"PPARα [1]": {"tested_on": "PPARα", "assay": "Western blot analysis of PPARα expression in 661W cells", "type": "cell-based, mouse", "conditions": "24 h treatment"}, "[2]": {"tested_on": "human retinal capillary endothelial cells (HRCEC)", "assay": "in vitro wound healing assay", "type": "cell-based", "conditions": "10 h and 24 h incubation"}, "[3]": {"tested_on": "PPARα target genes (Acadm, Cpt1a, Fabp3, Slc25a20)", "assay": "RT-PCR of PPARα target genes in 661W cells", "type": "cell-based, mouse", "conditions": "24 h treatment, n=6"}, "hPPARα [4]": {"target": "T1, hPPARα (Homo sapiens, UniProt Q07869)", "T1 sequence (Q07869 1-468)": "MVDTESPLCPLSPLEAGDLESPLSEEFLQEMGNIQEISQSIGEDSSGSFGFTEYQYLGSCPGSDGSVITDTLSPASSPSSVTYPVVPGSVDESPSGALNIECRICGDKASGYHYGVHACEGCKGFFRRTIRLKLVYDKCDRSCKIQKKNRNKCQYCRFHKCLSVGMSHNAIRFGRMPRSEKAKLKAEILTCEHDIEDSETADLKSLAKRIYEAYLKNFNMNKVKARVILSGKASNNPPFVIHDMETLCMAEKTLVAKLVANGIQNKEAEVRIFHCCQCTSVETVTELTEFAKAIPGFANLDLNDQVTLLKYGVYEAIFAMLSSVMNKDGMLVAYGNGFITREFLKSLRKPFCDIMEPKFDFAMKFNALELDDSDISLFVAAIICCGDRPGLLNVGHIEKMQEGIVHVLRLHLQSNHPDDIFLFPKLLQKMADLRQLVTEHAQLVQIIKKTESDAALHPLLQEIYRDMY", "assay": "cell-based"}, "hPPARα [5]": {"target": "T1, hPPARα", "assay": "PPARα luciferase cell reporter assay", "conditions": "for PPAR isoform selectivity profile: hPPARδ, hPPARγ luciferase cell-lines"}, "[6]": {"tested_on": "retinas of mice and diabetic rats", "conditions": "cited from earlier work"}, "PPARα [7]": {"tested_on": "PPARα", "conditions": "read-out: EC50 in biochemical PPARα assays; cited from earlier work"}, "type 2 diabetic patients": {"tested_on": "type 2 diabetic patients", "conditions": "FIELD and ACCORD; cited from earlier work"}}}
{"smiles": "COc1ccc(COc2ccc(CNc3cccc(C(=O)O)c3)cc2)cc1", "note": "[Compound 10]", "values": [{"measurement": "PPARα expression (Western blot)", "setting": "PPARα [1]", "value": "induced the expression of PPARα in a dose-dependent manner"}, {"measurement": "wound closure (cell migration)", "setting": "[2]", "value": "inhibits wound closure in a dose-dependent fashion"}, {"measurement": "expression of PPARα target genes (RT-PCR)", "setting": "[3]", "value": "induces the expression of various PPARα target genes"}, {"measurement": "EC50", "setting": "hPPARα [4]", "value": "~6", "unit": "µM"}]}
{"smiles": "COc1ccc(COc2ccc(CNc3cccc(C(=O)O)c3)c(OCc3ccc(OC)cc3)c2)cc1", "note": "[Compound 26]", "values": [{"measurement": "PPAR isoform selectivity profile", "setting": "hPPARα [5]; hPPARα", "value": "maintains the selectivity"}]}
{"smiles": "COc1ccc(COc2ccc(CNc3cccc(OC(C)(C)C(=O)O)c3)c(OCc3ccc(OC)cc3)c2)cc1", "note": "[Compound 28]", "values": [{"measurement": "PPAR isoform selectivity profile", "setting": "hPPARα [5]; hPPARα", "value": "pan-agonist profile was maintained"}, {"measurement": "improvement in potency versus 22", "setting": "hPPARα [5]; hPPARα, compare 22 and 28", "value": 10, "unit": "fold"}]}
{"smiles": "Cc1c(Cl)ccc2c(C(=O)O)cc(-c3ccccc3)nc12", "note": "[Compound Y-0452, 7-chloro-8-methyl-2-phenylquinoline-4-carboxylic acid]", "values": [{"measurement": "toxicity in the retinas", "setting": "[6]; mice and diabetic rats", "value": "without signs of toxicity"}, {"measurement": "effects in vivo against DR", "setting": "[6]; retinas of mice and diabetic rats", "value": "protective effects in vivo against DR"}, {"measurement": "EC50", "setting": "PPARα [7]", "value": "25 to 50", "unit": "µM"}]}
{"smiles": "Cc1nc(-c2ccc(C(F)(F)F)cc2)sc1C(=O)NCc1ccc(OC(C)(C)C(=O)O)cc1", "note": "[GW590735, reference compound]", "values": [{"measurement": "cytotoxicity in reporter assay", "setting": "hPPARα [5]; concentrations higher than 10 μM", "value": "observed cytotoxicity at higher concentrations"}]}
{"smiles": "CC(C)OC(=O)C(C)(C)Oc1ccc(C(=O)c2ccc(Cl)cc2)cc1", "note": "[fenofibrate]", "values": [{"measurement": "effects against diabetic macular edema (DME) and retinal NV", "setting": "type 2 diabetic patients", "value": "robust protective effects"}]}
